# Reference: patent US5849587A, “Method of inhibiting viral replication in eukaryotic cells and of inducing apoptosis of virally-infected cells” (Cornell Research Foundation, Inc., priority 1995, dated 1998)
# Entries after “also recorded” stand apart in the source; their conditions may differ.
# Assays:
# [1] = tested on: deoxyhypusyl hydroxylase (DOHH); details: previously established, Hanauske-Abel et al.; cited from earlier work
# GAPDH mRNA = assay: Polysomal localization of cellular GAPDH mRNA in PMA-induced ACH-2 cells; format: cell-based, human; details: 200 μM, FIG. 6
# Description: (§1) 142, 431-438 (1989), which is hereby incorporated by reference]. However, vigorous HIV-1 production by ACH-2 cells is induced by addition of the phorbol ester PMA [Pomerantz et al., Cell 61, 1271-1276 (1990) and Michael et al., J. Virol 65, 1291-1303 (1991), which are hereby incorporated by reference]. This system was selected for these experiments. Logarithmically growing ACH-2 cells, suspended at a concentration of 3×10^5 /ml, were incubated with the hypusine inhibitors mimosine and HK-1 at a final concentration of 200 μM. After 8 hours, viral replication was activated by addition of PMA to these cells and to untreated controls (100 ng/ml final PMA concentration). […] An aliquot of each fraction was analyzed by slot blotting, using the pXC-1 genomic ribosomal DNA probe from rat containing the 18S rRNA coding sequence [Rimarachin, Szabo et al., In Vitro 28A, 705-707 (1992), which is hereby incorporated by reference], to determine the location within the gradient of 18S rRNA, i.e., the distribution of polysomes vs. monosomes. […] Following electrophoresis, the radio-labeled PCR products were visualized by autoradiography according to routine techniques, and the band intensities quantified by densitometric analysis and expressed relative to total product per gradient.
# [2] = tested on: cellular deoxyhypusyl hydroxylase; details: Hanauske-Abel et al. 1994; cited from earlier work
# [3] = tested on: viral Gag mRNA (Rev-dependent transcripts); assay: Polysomal localization of viral Gag mRNA in PMA-induced ACH-2 cells; format: cell-based, HIV-1; details: 200 μM
# Description: as §1
smiles,measurement,setting,value
N[C@@H](Cn1ccc(=O)c(O)c1)C(=O)O [L-Mimosine],hypusine inhibition in cell-free system,[1],act as hypusine inhibitors in this cell-free system
same,polysomal localization of GAPDH mRNA,GAPDH mRNA,did not affect the polysomal loading of cellular MRNA; also recorded: only a marginal effect on the distribution of GAPDH mRNA
same,inhibition of purified and cellular deoxyhypusyl hydroxylase,[2],inhibit purified and cellular deoxyhypusyl hydroxylase
same,polysomal localization of viral Gag mRNA,[3]; FIG. 6,redirects a significant portion of the Rev-dependent Gag mRNAs into the non-polysomal fractions
same,polysomal localization of viral Gag mRNA,"[3]; FIG. 6, listed as minosine",shifted away from the polysomal protein producing machinery into the pool of monosomal/free MRNA
